# Laboratory results: patent US9028845B2, “Chimeric immunomodulatory compounds and methods of using the same-IV” (Dynavax Technologies Corporation, priority 2001, dated 2015)
# “Also recorded” adds a separate entry of the source.
# Assays:
# human PBMCs = experiment: Human PBMC cytokine response assay (IFN-γ and IFN-α in cell-free medium by ELISA), with or without cPLGA; format: cell-based; details: for IFN-γ (pg/ml) 28065: donor 28065 (high background), 1000 = outside assay limits; for IFN-α (pg/ml) 28065: donor 28065; for IFN-α (pg/ml) 28066 / IFN-γ (pg/ml) 28066: donor 28066; for IFN-α (pg/ml) 28067 / IFN-γ (pg/ml) 28067: donor 28067; for IFN-α (pg/ml) 28068 / IFN-γ (pg/ml) 28068: donor 28068;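 as to IFN-α (pg/ml) mean: 20 µg/mL compound for 24 hours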;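 as to IFN-γ (pg/ml) mean: 20 µg/mL compound for 24 hours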
# CD19+ B cells = experiment: Human B cell proliferation assay (3H-thymidine incorporation); details: for cpm1 / cpm2 / cpm3 / mean cpm / mean of both: B cells, Experiment B; for mean of both: mean of donors 121 and 194
# [1] = Table 24, mean of donors 28234-28237
# [2] = Table 25, mean of donors 28250-28253
# [3] = mean of donors 110, 112, 119, 120, Table 14
# [4] = mean of donors 28185-28188, Table 15
# [5] = mean of donors 28218-28221, 20 μg/ml, 24 h
# [6] = 20 ug/ml, 24 h, + PLGA = premixed with 100 μg/ml cPLGA
# [7] = mean of donors 28065-28068, 20 ug/ml, 24 h, + PLGA = premixed with 100 μg/ml cPLGA
substance,measurement,setting,value
(5′-TCGTCGA-3′-HEG)2-glycerol-HEG-5′-TCGTCGA-3′ [Compound C-94],"IFN-α induction (FIG. 10), in words","human PBMCs; PBMCs from 8 donors, 20 μg/ml, 24 h",induce high levels of IFN-α
same,IFN-α,"human PBMCs; Table 11, donor 28042",302 pg/mL
same,IFN-γ,"human PBMCs; Table 11, donor 28042",443 pg/mL
same,IFN-α,"human PBMCs; Table 11, donor 28043",252 pg/mL
same,IFN-γ,"human PBMCs; Table 11, donor 28043",198 pg/mL
same,IFN-α,"human PBMCs; Table 11, donor 28044",664 pg/mL
same,IFN-γ,"human PBMCs; Table 11, donor 28044",1417 pg/mL
same,IFN-α,"human PBMCs; Table 11, donor 28045",1855 pg/mL
same,IFN-γ,"human PBMCs; Table 11, donor 28045",888 pg/mL
same,IFN-α mean,"human PBMCs; Table 11, mean of donors",768 pg/mL
same,IFN-γ mean,"human PBMCs; Table 11, mean of donors",736 pg/mL
same,IFN-α,"human PBMCs; Table 24, donor 28234",16 pg/mL
same,IFN-γ,"human PBMCs; Table 24, donor 28234",7 pg/mL
same,IFN-α,"human PBMCs; Table 24, donor 28235",118 pg/mL
same,IFN-γ,"human PBMCs; Table 24, donor 28235",161 pg/mL
same,IFN-α,"human PBMCs; Table 24, donor 28236",548 pg/mL
same,IFN-γ,"human PBMCs; Table 24, donor 28236",239 pg/mL
same,IFN-α,"human PBMCs; Table 24, donor 28237",3631 pg/mL
same,IFN-γ,"human PBMCs; Table 24, donor 28237",1116 pg/mL
same,IFN-α mean,human PBMCs; [1],1078 pg/mL
same,IFN-γ mean,human PBMCs; [1],381 pg/mL
same,IFN-a,"human PBMCs; Table 25, donor 28250",245 pg/mL
same,IFN-g,"human PBMCs; Table 25, donor 28250, polynucleotides/spacers at amounts equivalent to the CIC, spacers alone 9 uM",340 pg/mL
same,IFN-a,"human PBMCs; Table 25, donor 28251",645 pg/mL
same,IFN-g,"human PBMCs; Table 25, donor 28251",60 pg/mL
same,IFN-a,"human PBMCs; Table 25, donor 28252",323 pg/mL
same,IFN-g,"human PBMCs; Table 25, donor 28252",287 pg/mL
same,IFN-a,"human PBMCs; Table 25, donor 28253",1198 pg/mL
same,IFN-g,"human PBMCs; Table 25, donor 28253",128 pg/mL
same,IFN-a mean,human PBMCs; [2],603 pg/mL
same,IFN-g mean,human PBMCs; [2],204 pg/mL
same,IFN-α induced relative to linear CIC C-21,human PBMCs; branched vs linear CIC with the same nucleic acid moieties,4 fold
same,IFN-α,"human PBMCs; donor 110, Table 14",1608 pg/mL
same,IFN-γ,"human PBMCs; donor 110, Table 14",5168 pg/mL
same,IFN-α,"human PBMCs; donor 112, Table 14",144 pg/mL
same,IFN-γ,"human PBMCs; donor 112, Table 14",284 pg/mL
same,IFN-α,"human PBMCs; donor 119, Table 14",2610 pg/mL
same,IFN-γ,"human PBMCs; donor 119, Table 14",104 pg/mL
same,IFN-α,"human PBMCs; donor 120, Table 14",878 pg/mL
same,IFN-γ,"human PBMCs; donor 120, Table 14",120 pg/mL
same,IFN-a,"human PBMCs; donor 28185, Table 15",1895 pg/mL
same,IFN-g,"human PBMCs; donor 28185, Table 15",181 pg/mL
same,IFN-a,"human PBMCs; donor 28186, Table 15",239 pg/mL
same,IFN-g,"human PBMCs; donor 28186, Table 15",61 pg/mL
same,IFN-a,"human PBMCs; donor 28187, Table 15",136 pg/mL
same,IFN-g,"human PBMCs; donor 28187, Table 15",384 pg/mL
same,IFN-a,"human PBMCs; donor 28188, Table 15",13 pg/mL
same,IFN-g,"human PBMCs; donor 28188, Table 15",17 pg/mL
same,IFN-a (pg/ml) 28218,"human PBMCs; donor 28218, 20 μg/ml, 24 h",32 pg/mL
same,IFN-g (pg/ml) 28218,"human PBMCs; donor 28218, 20 μg/ml, 24 h",15 pg/mL
same,IFN-a (pg/ml) 28219,"human PBMCs; donor 28219, 20 μg/ml, 24 h",167 pg/mL
same,IFN-g (pg/ml) 28219,"human PBMCs; donor 28219, 20 μg/ml, 24 h",39 pg/mL
same,IFN-a (pg/ml) 28220,"human PBMCs; donor 28220, 20 μg/ml, 24 h",633 pg/mL
same,IFN-g (pg/ml) 28220,"human PBMCs; donor 28220, 20 μg/ml, 24 h",44 pg/mL
same,IFN-a (pg/ml) 28221,"human PBMCs; donor 28221, 20 μg/ml, 24 h",412 pg/mL
same,IFN-g (pg/ml) 28221,"human PBMCs; donor 28221, 20 μg/ml, 24 h",269 pg/mL
same,IFN-α (pg/ml) mean,human PBMCs; [3],1310 pg/mL
same,IFN-γ (pg/ml) mean,human PBMCs; [3],1419 pg/mL
same,IFN-a (pg/ml) mean,human PBMCs; [4],571 pg/mL
same,IFN-g (pg/ml) mean,human PBMCs; [4],161 pg/mL
same,IFN-a (pg/ml) mean,human PBMCs; [5],311 pg/mL
same,IFN-g (pg/ml) mean,human PBMCs; [5],92 pg/mL
same,IFN-a (pg/ml) ×2,"human PBMCs; mean ×2, Table 15",1142 pg/mL
same,IFN-g (pg/ml) ×4,"human PBMCs; mean ×4, Table 15",644 pg/mL
same,"IFN-α induction, in words",human PBMCs; used alone,dramatically higher; also recorded: induced more IFN-α relative to linear CICs with HEG spacers; also recorded: HEG (C-94)>TEG (C-103)>C3 (C-104)=no linker (C-28)
same,cpm1,"CD19+ B cells; donor 121, 2 μg/ml",11418 cpm
same,cpm2,"CD19+ B cells; donor 121, 2 μg/ml",14406 cpm
same,cpm3,"CD19+ B cells; donor 121, 2 μg/ml",11110 cpm
same,mean cpm,"CD19+ B cells; donor 121 mean, 2 μg/ml",12311 cpm
same,cpm1,"CD19+ B cells; donor 194, 2 μg/ml",7361 cpm
same,cpm2,"CD19+ B cells; donor 194, 2 μg/ml",8505 cpm
same,cpm3,"CD19+ B cells; donor 194, 2 μg/ml",5349 cpm
same,mean cpm,"CD19+ B cells; donor 194 mean, 2 μg/ml",7072 cpm
same,mean of both,CD19+ B cells; 2 μg/ml,9692 cpm
same,"B cell proliferation (FIG. 11), in words","CD19+ B cells; purified human B cells, 5 μg/ml, 96 h",induce B cells to proliferate
5′-TCGTCG-3′-C12-5′-ACGTTCG-3′-C12-5′-AGATGAT-3′ [Compound C-19],IFN-γ (pg/ml) 28065,human PBMCs; [6],84 pg/mL
same,IFN-α (pg/ml) 28065,human PBMCs; [6],0 pg/mL
same,IFN-α (pg/ml) 28066,human PBMCs; [6],1 pg/mL
same,IFN-γ (pg/ml) 28066,human PBMCs; [6],8 pg/mL
same,IFN-α (pg/ml) 28067,human PBMCs; [6],0 pg/mL
same,IFN-γ (pg/ml) 28067,human PBMCs; [6],1 pg/mL
same,IFN-α (pg/ml) 28068,human PBMCs; [6],13 pg/mL
same,IFN-γ (pg/ml) 28068,human PBMCs; [6],2 pg/mL
same,IFN-α (pg/ml) mean,human PBMCs; [7],4 pg/mL
same,IFN-γ (pg/ml) mean,human PBMCs; [7],24 pg/mL
same,"immunomodulatory activity (IFN-γ / IFN-α secretion), in words",human PBMCs; used alone (no cPLGA),did not show activity
same,"B cell proliferation, in words","CD19+ B cells; 2 μg/ml, 48 h plus 8 h 3H-thymidine pulse",inactive
same,cpm1,"CD19+ B cells; donor 121, 2 μg/ml",858 cpm
same,cpm2,"CD19+ B cells; donor 121, 2 μg/ml",1099 cpm
same,cpm3,"CD19+ B cells; donor 121, 2 μg/ml",926 cpm
same,mean cpm,"CD19+ B cells; donor 121 mean, 2 μg/ml",961 cpm
same,cpm1,"CD19+ B cells; donor 194, 2 μg/ml",371 cpm
same,cpm2,"CD19+ B cells; donor 194, 2 μg/ml",403 cpm
same,cpm3,"CD19+ B cells; donor 194, 2 μg/ml",312 cpm
same,mean cpm,"CD19+ B cells; donor 194 mean, 2 μg/ml",362 cpm
same,mean of both,CD19+ B cells; 2 μg/ml,662 cpm
5′-TCGTCG-3′-HME-5′-ACGTTCG-3′-HME-5′-AGATGAT-3′ [Compound C-25],IFN-γ (pg/ml) 28065,human PBMCs; [6],541 pg/mL
same,IFN-α (pg/ml) 28065,human PBMCs; [6],11 pg/mL
same,IFN-α (pg/ml) 28066,human PBMCs; [6],0 pg/mL
same,IFN-γ (pg/ml) 28066,human PBMCs; [6],6 pg/mL
same,IFN-α (pg/ml) 28067,human PBMCs; [6],22 pg/mL
same,IFN-γ (pg/ml) 28067,human PBMCs; [6],19 pg/mL
same,IFN-α (pg/ml) 28068,human PBMCs; [6],79 pg/mL
same,IFN-γ (pg/ml) 28068,human PBMCs; [6],337 pg/mL
same,IFN-α (pg/ml) mean,human PBMCs; [7],28 pg/mL
same,IFN-γ (pg/ml) mean,human PBMCs; [7],226 pg/mL
same,cpm1,"CD19+ B cells; donor 121, 2 μg/ml",34360 cpm
same,cpm2,"CD19+ B cells; donor 121, 2 μg/ml",35016 cpm
same,cpm3,"CD19+ B cells; donor 121, 2 μg/ml",26480 cpm
same,mean cpm,"CD19+ B cells; donor 121 mean, 2 μg/ml",31952 cpm
same,cpm1,"CD19+ B cells; donor 194, 2 μg/ml",16060 cpm
same,cpm2,"CD19+ B cells; donor 194, 2 μg/ml",19509 cpm
same,cpm3,"CD19+ B cells; donor 194, 2 μg/ml",17384 cpm
same,mean cpm,"CD19+ B cells; donor 194 mean, 2 μg/ml",17651 cpm
same,mean of both,CD19+ B cells; 2 μg/ml,24802 cpm
5′-TCGTCG-3′-TEG-5′-ACGTTCG-3′-TEG-5′-AGATGAT-3′ [Compound C-18],IFN-γ (pg/ml) 28065,human PBMCs; [6],1000 pg/mL
same,IFN-α (pg/ml) 28065,human PBMCs; [6],51 pg/mL
same,IFN-α (pg/ml) 28066,human PBMCs; [6],9 pg/mL
same,IFN-γ (pg/ml) 28066,human PBMCs; [6],102 pg/mL
same,IFN-α (pg/ml) 28067,human PBMCs; [6],16 pg/mL
same,IFN-γ (pg/ml) 28067,human PBMCs; [6],27 pg/mL
same,IFN-α (pg/ml) 28068,human PBMCs; [6],162 pg/mL
same,IFN-γ (pg/ml) 28068,human PBMCs; [6],695 pg/mL
same,IFN-α (pg/ml) mean,human PBMCs; [7],59 pg/mL
same,IFN-γ (pg/ml) mean,human PBMCs; [7],456 pg/mL
same,cpm2,"CD19+ B cells; donor 121, 2 μg/ml",17085 cpm
same,cpm3,"CD19+ B cells; donor 121, 2 μg/ml",14653 cpm
same,mean cpm,"CD19+ B cells; donor 121 mean, 2 μg/ml",15869 cpm
same,cpm1,"CD19+ B cells; donor 194, 2 μg/ml",10028 cpm
same,cpm2,"CD19+ B cells; donor 194, 2 μg/ml",12217 cpm
same,cpm3,"CD19+ B cells; donor 194, 2 μg/ml",10538 cpm
same,mean cpm,"CD19+ B cells; donor 194 mean, 2 μg/ml",10928 cpm
same,mean of both,CD19+ B cells; 2 μg/ml,13398 cpm
